Data on 2 molecules can be found in the NIST ThermoML archive (doi:10.1016/j.jct.2010.04.027).

± gives the expanded uncertainty stated by the source.

This series is described as follows: molar enthalpy of vaporization or sublimation. The note with it: 298.15 K; Crystal; Static calorimetry.

In the case of `O=C1c2ccccc2Cc2ccccc21` [9(10H)-anthracenone], the molar enthalpy worked out at 25.5 ± 0.86 kcal/mol.

Consider `c1ccc2c(c1)Cc1ccccc1O2` [10H-9-oxaanthracene], for which the molar enthalpy worked out at 22 ± 0.526 kcal/mol.
